In patent US20170037028A1 (BAYER PHARMA AKTIENGESELLSCHAFT, priority 2013, published 2017):
Read-outs that look alike come from different tables or passages of the source.

Molecular target: T1, GLUT1 (Homo sapiens, UniProt P11166)
T1 sequence (P11166 1-492): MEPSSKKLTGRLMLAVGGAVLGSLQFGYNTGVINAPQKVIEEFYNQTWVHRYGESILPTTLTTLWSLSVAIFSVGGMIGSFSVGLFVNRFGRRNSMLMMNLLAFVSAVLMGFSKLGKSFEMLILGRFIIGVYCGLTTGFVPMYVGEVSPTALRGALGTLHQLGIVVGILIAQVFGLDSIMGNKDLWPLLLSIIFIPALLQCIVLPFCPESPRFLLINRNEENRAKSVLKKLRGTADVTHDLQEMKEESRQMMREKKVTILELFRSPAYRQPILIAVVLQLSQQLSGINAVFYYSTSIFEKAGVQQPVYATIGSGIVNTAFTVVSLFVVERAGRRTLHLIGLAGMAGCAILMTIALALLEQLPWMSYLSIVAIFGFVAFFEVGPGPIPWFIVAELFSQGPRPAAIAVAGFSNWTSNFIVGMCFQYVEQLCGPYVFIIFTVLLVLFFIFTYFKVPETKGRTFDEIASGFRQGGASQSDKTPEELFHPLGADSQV
Assay: Indirect measurement of GLUT1 activity by quantification of intracellular ATP levels (glucose induced ATP increase)
Type: cell-based
Parameters: endogenous in cells; host or cells: DLD1 or CHO-K1
Conditions: read-out: IC50 regarding glucose induced ATP increase (GLUT1 inhibition)
Procedure, shortened: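 Intracellular ATP was measured by CellTiter-Glo luminescence as an indirect readout of transport: glucose-driven for GLUT1, fructose-driven for GLUT2. DLD1 or CHO-K1 cells were used alongside an oxidative phosphorylation inhibitor. Beforehand, cells were held overnight in glucose-free 1% FCS medium to deplete ATP.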

IC50 [nM] | SMILES | IC50 (DLD1 cells, 0.1 mM glucose, 1 μM Rotenone, 15 min, CellTiter-Glo ATP readout, IC50 values standardized to cytochalasin B IC50 values) [nM]
124 | Cc1nn(Cc2cccc(C#N)n2)c(C)c1NC(=O)c1cc(C(N)=O)nc2cc(F)ccc12 [Example 1707] | –
147 | Cc1nn(Cc2cccc(C#N)n2)c(C)c1NC(=O)c1cc(C(N)=O)nc2ccccc12 [Example 1708] | –
28.1 | Cc1nn(Cc2cccc(C#N)n2)c(C)c1NC(=O)c1cc(C(N)=O)nc2cccc(F)c12 [Example 1709] | –
3.8 | Cc1cc(F)ccc1Cn1nc(C(F)(F)F)c(NC(=O)c2cc(C(N)=O)nc3cc(F)ccc23)c1C [Example 1710] | –
4.4 | Cc1cc(F)ccc1Cn1nc(C(F)(F)F)c(NC(=O)c2cc(C(N)=O)nc3cccc(F)c23)c1C [Example 1711] | –
5 | Cc1cc(F)ccc1Cn1nc(C(F)(F)F)c(NC(=O)c2cc(C(N)=O)nc3ccccc23)c1C [Example 1713] | –

Second part, the molecule before the results:

SMILES | IC50 [nM] | IC50 (DLD1 cells, 0.1 mM glucose, 1 μM Rotenone, 15 min, CellTiter-Glo ATP readout, IC50 values standardized to cytochalasin B IC50 values) [nM]
Cc1c(NC(=O)c2cc(C(N)=O)nc3ccccc23)c(C(F)(F)F)nn1Cc1cc(CN2CCOCC2)on1 [Example 1702] | 140 | –
Cc1c(NC(=O)c2cc(C(N)=O)nc3cc(F)ccc23)c(C(F)(F)F)nn1Cc1ccccc1OC(F)(F)F [Example 1703] | – | 387
Cc1c(NC(=O)c2cc(C(N)=O)nc3cc(F)c(Cl)cc23)c(C(F)(F)F)nn1Cc1ccccc1OC(F)(F)F [Example 1704] | 110 | –
Cc1c(NC(=O)c2cc(C(N)=O)nc3ccccc23)c(C(F)(F)F)nn1Cc1ccccc1OC(F)(F)F [Example 1705] | 172 | –
Cc1c(NC(=O)c2cc(C(N)=O)nc3cccc(F)c23)c(C(F)(F)F)nn1Cc1ccccc1OC(F)(F)F [Example 1706] | 616 | –
Cc1cc(F)ccc1Cn1nc(C(F)(F)F)c(NC(=O)c2cc(C(N)=O)nc3cc(F)c(Cl)cc23)c1C [Example 1712] | 6.5 | –
Cc1c(NC(=O)c2cc(C(N)=O)nc3cc(F)ccc23)c(C(F)(F)F)nn1Cc1ccc(CC(F)(F)F)cc1 [Example 1714] | 6.4 | –
Cc1c(NC(=O)c2cc(C(N)=O)nc3cccc(F)c23)c(C(F)(F)F)nn1Cc1ccc(CC(F)(F)F)cc1 [Example 1715] | 1.5 | –
Cc1c(NC(=O)c2cc(C(N)=O)nc3cc(F)c(Cl)cc23)c(C(F)(F)F)nn1Cc1ccc(CC(F)(F)F)cc1 [Example 1716] | 3 | –
Cc1c(NC(=O)c2cc(C(N)=O)nc3ccccc23)c(C(F)(F)F)nn1Cc1ccc(CC(F)(F)F)cc1 [Example 1717] | 2.5 | –
